# In patent US12258354B2, “AhR modulators” (IDEAYA BIOSCIENCES, INC., priority 2018, dated 2025):
# Target: T1, hAhR (Homo sapiens, UniProt P35869)
# T1 construct: Stably integrated DRE-luciferase cell lines were generated by transducing the both cell lines with Cignal XRE luciferase reporter; endogenous in cells; host or cells: HEPG2 DRE-Luc cells (only the XRE luciferase reporter was transduced)
# T1 sequence (P35869 11-848): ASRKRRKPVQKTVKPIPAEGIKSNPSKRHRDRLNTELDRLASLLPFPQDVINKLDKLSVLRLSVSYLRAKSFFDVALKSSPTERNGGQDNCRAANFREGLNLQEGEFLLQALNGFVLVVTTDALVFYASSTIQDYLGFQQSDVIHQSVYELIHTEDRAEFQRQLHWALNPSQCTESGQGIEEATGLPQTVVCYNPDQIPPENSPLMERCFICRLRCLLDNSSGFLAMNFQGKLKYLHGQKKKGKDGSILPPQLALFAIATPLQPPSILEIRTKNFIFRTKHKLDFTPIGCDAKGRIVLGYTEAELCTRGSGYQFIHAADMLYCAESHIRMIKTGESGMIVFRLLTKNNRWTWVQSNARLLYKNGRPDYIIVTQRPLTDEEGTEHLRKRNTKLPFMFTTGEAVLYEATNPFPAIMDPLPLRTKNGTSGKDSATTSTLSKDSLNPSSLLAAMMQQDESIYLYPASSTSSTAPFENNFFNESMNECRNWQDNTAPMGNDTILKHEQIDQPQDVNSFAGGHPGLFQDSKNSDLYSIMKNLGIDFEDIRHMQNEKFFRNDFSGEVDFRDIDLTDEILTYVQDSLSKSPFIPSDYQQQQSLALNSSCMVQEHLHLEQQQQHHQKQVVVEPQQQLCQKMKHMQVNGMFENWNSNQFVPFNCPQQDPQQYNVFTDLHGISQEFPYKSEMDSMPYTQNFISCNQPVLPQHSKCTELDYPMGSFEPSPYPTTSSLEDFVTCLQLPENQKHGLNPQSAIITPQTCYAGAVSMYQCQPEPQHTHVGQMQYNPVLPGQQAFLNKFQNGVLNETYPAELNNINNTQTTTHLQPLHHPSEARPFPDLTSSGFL
# Assay: DRE-luciferase transcriptional reporter assay in HEPG2 DRE-Luc cells, TCDD-induced (antagonist mode)
# Type: cell-based
# Conditions: relative IC50, 3 nM TCDD, 24-hour incubation, firefly luciferase readout
# Procedure: HEPG2 and HEPA1C1C7 cells were maintained in MEM and αMEM without nucleosides supplemented with 10% heat inactivated FBS respectively. Stably integrated DRE-luciferase cell lines were generated by transducing the both cell lines with Cignal XRE luciferase reporter (Qiagen) lentiviral particles according to the manufacturer protocol. For both cell lines stably integrated reporter cell lines were selected for the presence of 2 μg/mL puromycin. Following selection of stably integrated cell line pools, clonal cell lines were isolated by limiting dilution in 96-well plates. Transcriptional assays were performed by seeding 100 μL of cells at a density of 250,000 or 100,000 cells/mL, for HEPG2 and HEPA1C1C7 DRE-Luc cells respectively, into 96-well cell culture plates in OptiMEM supplemented with 0.5% heat inactivated FBS and allowed to attach overnight. For modulator assays, the compounds were added in a semi-log dose response using a D300e Digital Dispenser (Tecan) followed normalization with vehicle (DMSO). Immediately following compound addition 10 μL of 2,3,7,8-Tetrachlorodibenzo-p-dioxin (TCDD) was added to the cells to a final concentration of 3 nM or 0.3 nM for the HEPG2 and HEPA1C1C7 DRE-Luc cells respectively. Following 24-hour incubation, the medium was removed and the cells were lysed in 25 μL of Reporter Lysis Buffer (Promega). Firefly luciferase activity was measured immediately following the addition of 50 μL Luciferase Assay Reagent (Promega). The percent maximal activity for each point was determined using the following equation: (RLUsample−RLUvehicle−TCDD)/(RLUvehicle+TCDD RLUvehicle−TCDD)*100. The relative IC50, defined as the compound concentration required to reduce the TCDD induced response between the top and bottom plateau of each individual dose response curve by half, for each compound was determined using Prism 7 (GraphPad Software).
row,Molecule,IC50 [nM]
1,"2-((2-hydroxy-2-azaspiro[3.3]heptan-2-yl)methyl)-3-methyl-5-(2-methyl-4-(6-(trifluoromethyl)pyrido[3,2-d]pyrimidin-2-yl)phenyl)-6,7-dihydropyrazolo[1,5-a]pyrazin-4 (5H)-one [Example 109]",< 200
2,"Cc1cc(-c2ncc3cc(C(F)(F)F)ccc3n2)ccc1N1CCn2ncc(C)c2S1(=O)=O [Example 93, 8-methyl-2-(2-methyl-4-(6-(trifluoromethyl)quinazolin-2-yl)phenyl)-3,4-dihydro-2H-pyrazolo[1,5-e][1,2,5]thiadiazine 1,1-dioxide]",< 200
3,"Cc1cc(-c2ncc3cc(C(F)(F)F)ccc3n2)ccc1N1CCn2ncc(C3NC(=O)NC3=O)c2C1=O (centres unmarked) [Example 94, 5-(5-(2-methyl-4-(6-(trifluoromethyl)quinazolin-2-yl)phenyl)-4-oxo-4,5,6,7-tetrahydropyrazolo[1,5-a]pyrazin-3-yl)imidazolidine-2,4-dione]",< 200
4,"Cc1cc(-c2ncc3cc(C(F)(F)F)ccc3n2)ccc1N1CCn2nc(CN3CCO[C@H](C)C3)c(C)c2C1=O [Example 95, (R)-3-methyl-5-(2-methyl-4-(6-(trifluoromethyl)quinazolin-2-yl)phenyl)-2-((2-methylmorpholino)methyl)-6,7-dihydropyrazolo[1,5-a]pyrazin-4 (5H)-one]",< 200
5,"Cc1cc(-c2ncc3cc(C(F)(F)F)ccc3n2)ccc1N1CCn2nc(CN3CCO[C@@H](C)C3)c(C)c2C1=O [Example 96, (S)-3-methyl-5-(2-methyl-4-(6-(trifluoromethyl)quinazolin-2-yl)phenyl)-2-((2-methylmorpholino)methyl)-6,7-dihydropyrazolo[1,5-a]pyrazin-4 (5H)-one]",< 200
6,"Cc1cc(-c2ncc3cc(C(F)(F)F)ccc3n2)ccc1N1CCn2nc(COP(=O)(O)O)c(C)c2C1=O [Example 97, (3-methyl-5-(2-methyl-4-(6-(trifluoromethyl)quinazolin-2-yl)phenyl)-4-oxo-4,5,6,7-tetrahydropyrazolo[1,5-a]pyrazin-2-yl)methyl dihydrogen phosphate]",< 200
7,"Cc1cc(-c2ncc3cc(C(F)(F)F)ccc3n2)ccc1N1CCn2nc(CN3CCC(=O)CC3)c(C)c2C1=O [Example 98, 3-methyl-5-(2-methyl-4-(6-(trifluoromethyl)quinazolin-2-yl)phenyl)-2-((4-oxopiperidin-1-yl)methyl)-6,7-dihydropyrazolo[1,5-a]pyrazin-4 (5H)-one]",< 200
8,"Cc1cc(-c2ncc3cc(C(F)(F)F)ccc3n2)ccc1N1CCn2nc(CN3CCC(F)CC3)c(C)c2C1=O [Example 99, 2-((4-fluoropiperidin-1-yl)methyl)-3-methyl-5-(2-methyl-4-(6-(trifluoromethyl)-quinazolin-2-yl)phenyl)-6,7-dihydropyrazolo[1,5-a]pyrazin-4 (5H)-one]",< 200
9,"Cc1cc(-c2ncc3cc(C(F)(F)F)ccc3n2)ccc1N1CCn2nc(CN3CCC(O)CC3)c(C)c2C1=O [Example 100, 2-((4-hydroxypiperidin-1-yl)methyl)-3-methyl-5-(2-methyl-4-(6-(trifluoromethyl)-quinazolin-2-yl)phenyl)-6,7-dihydropyrazolo[1,5-a]pyrazin-4 (5H)-one]",< 200
10,"Cc1cc(-c2ncc3cc(C(F)(F)F)ccc3n2)ccc1N1CCn2nc(CN3CCS(=O)(=O)CC3)c(C)c2C1=O [Example 101, 2-((1,1-dioxidothiomorpholino)methyl)-3-methyl-5-(2-methyl-4-(6-(trifluoro-methyl)quinazolin-2-yl)phenyl)-6,7-dihydropyrazolo[1,5-a]pyrazin-4 (5H)-one]",< 200

# The next lines start with the values.
row,IC50 [nM],Molecule
1,< 200,"Cc1cc(-c2ncc3cc(C(F)(F)F)ccc3n2)ccc1N1CCn2nc(CN3CCC4(CC3)COC4)c(C)c2C1=O [Example 102, 2-((2-oxa-7-azaspiro[3.5]nonan-7-yl)methyl)-3-methyl-5-(2-methyl-4-(6-(trifluoromethyl)quinazolin-2-yl)phenyl)-6,7-dihydropyrazolo[1,5-a]pyrazin-4 (5H)-one]"
2,< 200,"Cc1cc(-c2ncc3cc(C(F)(F)F)ccc3n2)ccc1N1CCn2nc(CN3CCN(C)CC3)c(C)c2C1=O [Example 103, 3-methyl-5-(2-methyl-4-(6-(trifluoromethyl)quinazolin-2-yl)phenyl)-2-((4-methyl-piperazin-1-yl)methyl)-6,7-dihydropyrazolo[1,5-a]pyrazin-4 (5H)-one]"
3,< 200,"Cc1cc(-c2ncc3cc(C(F)(F)F)ccc3n2)ccc1N1CCn2nc(CN3CCN(C)C(=O)C3)c(C)c2C1=O [Example 104, 3-methyl-2-((4-methyl-3-oxopiperazin-1-yl)methyl)-5-(2-methyl-4-(6-(trifluoro-methyl)quinazolin-2-yl)phenyl)-6,7-dihydropyrazolo[1,5-a]pyrazin-4 (5H)-one]"
4,< 200,"Cc1cc(-c2ncc3nc(C(F)(F)F)ccc3n2)ccc1N1CCn2nc(CN3CCOCC3)c(C)c2C1=O [Example 105, 3-methyl-5-(2-methyl-4-(6-(trifluoromethyl)pyrido[3,2-d]pyrimidin-2-yl)phenyl)-2-(morpholinomethyl)-6,7-dihydropyrazolo[1,5-a]pyrazin-4 (5H)-one]"
5,< 200,"Cc1cc(-c2ccc3nc(C(F)(F)F)ccc3n2)ccc1N1CCn2nc(CN3CCOCC3)c(C)c2C1=O [Example 106, 3-methyl-5-(2-methyl-4-(6-(trifluoromethyl)-1,5-naphthyridin-2-yl)phenyl)-2-(morpholinomethyl)-6,7-dihydropyrazolo[1,5-a]pyrazin-4 (5H)-one]"
6,< 200,"Cc1cc(-c2ncc3cc(C(F)(F)F)ccc3n2)ccc1N1CCn2nc(C(=O)N3CCN(C)CC3)c(C)c2C1=O [Example 107, 3-methyl-5-(2-methyl-4-(6-(trifluoromethyl)quinazolin-2-yl)phenyl)-2-(4-methylpiperazine-1-carbonyl)-6,7-dihydropyrazolo[1,5-a]pyrazin-4 (5H)-one]"
7,< 200,"Cc1cc(-c2ncc3cc(C(F)(F)F)ccc3n2)ccc1N1CCn2nc(CN3CCC(F)(F)CC3)c(C)c2C1=O [Example 108, 2-((4,4-difluoropiperidin-1-yl)methyl)-3-methyl-5-(2-methyl-4-(6-(trifluoro-methyl)quinazolin-2-yl)phenyl)-6,7-dihydropyrazolo[1,5-a]pyrazin-4 (5H)-one]"
8,< 200,"Cc1cc(-c2ncc3cc(C(F)(F)F)ccc3n2)ccc1N1CCn2nc(CN3CCCC4(COC4)C3)c(C)c2C1=O [Example 110, 2-((2-oxa-6-azaspiro[3.5]nonan-6-yl)methyl)-3-methyl-5-(2-methyl-4-(6-(trifluoro-methyl)quinazolin-2-yl)phenyl)-6,7-dihydropyrazolo[1,5-a]pyrazin-4 (5H)-one]"
9,< 200,"Cc1cc(-c2ncc3cc(C(F)(F)F)ccc3n2)ccc1N1CCn2nc(CN3CCC4(COC4)C3)c(C)c2C1=O [Example 111, 2-((2-oxa-6-azaspiro[3.4]octan-6-yl)methyl)-3-methyl-5-(2-methyl-4-(6-(trifluoromethyl)quinazolin-2-yl)phenyl)-6,7-dihydropyrazolo[1,5-a]pyrazin-4 (5H)-one]"
10,< 200,"Cc1cc(-c2ncc3cc(C(F)(F)F)ccc3n2)ccc1N1CCn2nc(C(C)N3CCOCC3)c(C)c2C1=O (centres unmarked) [Example 112, 3-methyl-5-(2-methyl-4-(6-(trifluoromethyl)quinazolin-2-yl)phenyl)-2-(1-morpholinoethyl)-6,7-dihydropyrazolo[1,5-a]pyrazin-4 (5H)-one]"
